Experimental data: publication PMC4909242, “Cyclization strategies of meditopes: affinity and diffraction studies of meditope–Fab complexes” (Acta Crystallographica. Section F, Structural Biology …, 2016)

Test system: cetuximab IgG
Experiment: Surface plasmon resonance binding kinetics of meditope variants to cetuximab
Settings: SPR; for k a / k d: Biacore T100, cetuximab IgG amine-coupled to CM5 chip (5000 RU), HBS-EP+ pH 7.4, flow 30 µl min^−1; for k a: error <38% for values of variants marked ‡; for k d: off-rate independent of peptide concentration

Row | Compound | k a [M^−1 s^−1 × 10^4] | k d [s⁻¹] | increase in affinity compared with the original meditope (ratio of K d to the original disulfide meditope) [fold] | decrease in the on-rate compared with the long meditope (ratio of k a) [fold]
1 | CC(C)C[C@@H]1NC(=O)[C@H](CCCNC(=N)N)NC(=O)[C@H](CCCNC(=N)N)NC(=O)[C@H]([C@@H](C)O)NC(=O)[C@H](CO)NC(=O)[C@H](CC(C)C)NC(=O)[C@H](CC(=O)O)NC(=O)[C@H](Cc2ccccc2)NC(=O)[C@H](CCC(N)=O)NC(=O)CCNC(=O)CCNC(=O)[C@H](CCCCN)NC1=O | 5.8 | 0.091 | – | –
2 | CC(C)C[C@@H]1NC(=O)[C@H](CCCNC(=N)N)NC(=O)[C@H](CCCNC(=N)N)NC(=O)[C@H]([C@@H](C)O)NC(=O)[C@H](CO)NC(=O)[C@H](CC(C)C)NC(=O)[C@H](CC(=O)O)NC(=O)[C@H](Cc2ccccc2)NC(=O)[C@H](CCC(N)=O)NC(=O)[C@@H](N)CSSC[C@@H](C(N)=O)NC(=O)[C@H](CCCCN)NC1=O | 12 | 0.018 | – | –
3 | CC(C)C[C@@H]1NC(=O)[C@H](CCCNC(=N)N)NC(=O)[C@H](CCCNC(=N)N)NC(=O)[C@H]([C@@H](C)O)NC(=O)[C@H](CO)NC(=O)[C@H](CC(C)C)NC(=O)[C@H](CC(=O)O)NC(=O)[C@H](Cc2ccccc2)NC(=O)[C@H](CCC(N)=O)NC(=O)CCCCCCNC(=O)[C@H](CCCCN)NC1=O | 3.8 | 0.064 | – | –
4 | CC(=O)N[C@H]1CSSC[C@@H](C(N)=O)NC(=O)[C@H](CCCCN)NC(=O)[C@H](CC(C)C)NC(=O)[C@H](CCCNC(=N)N)NC(=O)[C@H](CCCNC(=N)N)NC(=O)[C@H]([C@@H](C)O)NC(=O)[C@H](CO)NC(=O)[C@H](CC(C)C)NC(=O)[C@H](CC(=O)O)NC(=O)[C@H](Cc2ccccc2)NC(=O)[C@H](CCC(N)=O)NC1=O | 15 | 0.011 | ~2.3 | –
5 | CC(=O)N[C@H]1CSSC[C@@H](C(=O)NCC(=O)NCC(=O)N[C@@H](CO)C(=O)N[C@@H](CCCCN)C(=O)O)NC(=O)[C@H](CCCNC(=N)N)NC(=O)[C@H](CC(C)C)NC(=O)[C@H](CCCNC(=N)N)NC(=O)[C@H](CCCNC(=N)N)NC(=O)[C@H]([C@@H](C)O)NC(=O)[C@H](CO)NC(=O)[C@H](CC(C)C)NC(=O)[C@H](CC(=O)O)NC(=O)[C@H](Cc2ccccc2)NC(=O)[C@H](CCC(N)=O)NC1=O | – | 0.010 | – | –
6 | CC(C)C[C@@H]1NC(=O)[C@H](CCCNC(=N)N)NC(=O)[C@H](CCCNC(=N)N)NC(=O)[C@H]([C@@H](C)O)NC(=O)[C@H](CO)NC(=O)[C@H](CC(C)C)NC(=O)[C@H](CC(=O)O)NC(=O)[C@H](Cc2ccccc2)NC(=O)[C@H](CCC(N)=O)NC(=O)CCSSC[C@@H](C(=O)O)NC(=O)[C@H](CCCCN)NC1=O | 2.1 | 0.012 | – | ~4.4
